[5FU] = 5-fluorouracil base replacing uracil
Assays:
Format in all cases: cell-based, human
[1] = test system: acute lymphocytic leukemia cell line (REH); test: Cell proliferation, REH; conditions: compared to negative controls
Description: (§1) For transfections, 1×10^5 cells were plated in six-well plates and transfected with 100 nM of control non-specific miRNA (Thermo Fischer), a modified microRNA, or exogenous native microRNA after 24 hours using Oligofectamine (Thermo Fischer) following the manufacturer's protocols. For reagent free transfection, cells were plated in 6 well plates at (1×10^5) cells per well. Twenty-four hours later 100 pmol miRNA (Control, miR-15a, Mimic-1) were diluted in Optimem (Thermo Fischer) and added to the plate. Media was changed after 24 hours. Media was supplemented with 10% fetal bovine serum (Thermo Fischer). Briefly, cells were cultured in growth media (DMEM/F12 supplemented with B27, 10 ng/mL bFGF, and 20 ng/mL EGF (Life Technologies) in ultra-low attachment flasks) for up to 6 days. The spheroid cells were maintained by collection through gentle centrifugation, dissociation to single cells and replating.
(§2) Cell proliferation assay: Twenty-four hours after transfection, cells were seeded in 96-well plates at a density of 2000 cells per well. The cell proliferation assay was performed on days 1 to 5 by incubating 10 μl WST-1 (Roche Applied Science, Mannheim, Germany) in the culture medium for 1 h and reading the absorbance at 450 and 630 nm. The cell proliferation rate was calculated by subtracting the […]. Experiments for the cell proliferation assay were performed at least three times. The O.D. was calculated by subtracting the absorbance at 630 nm from that at 450 nm. Proliferation experiments were performed three times.

[2] = test system: Panc-1 pancreatic cancer cells; test: Cell proliferation, Panc-1; conditions: PANC-1; 50 nM, 25 nM, 12.5 nM, 6.25 nM, and 3.125 nM
Description: as §1, with “For transfections, 1×10^5 cells were plated in six-well plates and transfected with 100 nM of control non-specific miRNA (Thermo Fischer), a modified microRNA, or exogenous native microRNA after 24 hours using Oligofectamine (Thermo Fischer) following the manufacturer's protocols.” left out
as §2

[3] = test system: AsPC-1 pancreatic cancer cells; test: Cell proliferation, AsPC-1; conditions: APSC-1; 50 nM, 25 nM, 12.5 nM, 6.25 nM, and 3.125 nM
Description: as §1, with “For transfections, 1×10^5 cells were plated in six-well plates and transfected with 100 nM of control non-specific miRNA (Thermo Fischer), a modified microRNA, or exogenous native microRNA after 24 hours using Oligofectamine (Thermo Fischer) following the manufacturer's protocols.” left out
as §2

[4] = test system: Hs766T pancreatic cancer cells; test: Cell proliferation, Hs766T; conditions: compared to negative controls
Description: as §1, §2

AGS stomach cancer cells = test: Cell proliferation, AGS; conditions: compared to negative controls
Description: as §1, §2

[5] = test system: SKBR3 breast cancer cells; test: Cell proliferation, SKBR3; conditions: SKBR3, compared to negative controls
Description: as §1, §2

A549 lung cancer cells = test: Cell proliferation, A549; conditions: A549, compared to negative controls
Description: as §1, §2

[6] = test system: acute lymphocytic leukemia cell line (REH); test: Cell proliferation, REH; conditions: 50 nM, 25 nM, 12.5 nM, 6.25 nM, and 3.125 nM
[7] = test system: HCT116 colon cancer cells; test: WST-1 cell proliferation assay, HCT116; conditions: HCT116, in words, vs controls
Description: as §1, with “1×10^5 cells were plated in six-well plates and transfected with 100 nM of control non-specific miRNA (Thermo Fischer), a modified microRNA, or exogenous native microRNA after 24 hours using Oligofectamine” left out
as §2

[8] = test system: MDA-MB-231 triple negative breast cancer cells; test: MTT cell proliferation, MDA-MB-231, with or without oligofectamine; conditions: for cell proliferation without delivery vehicle (no oligofectamine): MDA-MB-231, MTT assay
Description: as §1
Furthermore, to test whether or not the modified microRNAs of the present disclosure can be delivered directly to cells and taken up by the cancer cells without the use of transfer agents or vehicles (i.e., oligofectamine), MDA-MB-231 triple negative breast cancer cells were transfected with miR-NC (negative control), exogenous unmodified miR-200b or miR-489, 5-FU-miR-200b or modified miR-489 by using oligofectamine or without delivery vehicle. As shown in FIGS. 17A-17B and 20A, the effects of expression of the exemplary modified miRs tested on breast cancer cell proliferation were monitored by MTT assay for 6 days upon transfection or incubation.

Substance | leukemia cancer cell proliferation [1] | cell proliferation, dose dependence [2] | cell proliferation, dose dependence [3] | pancreatic cancer cell proliferation [4] | gastric cancer cell proliferation (AGS stomach cancer cells) | breast cancer cell proliferation [5] | lung cancer cell proliferation (A549 lung cancer cells) | leukemia cancer cell proliferation, dose dependence [6] | inhibition of colon cancer cell proliferation [7] | cell proliferation without delivery vehicle (no oligofectamine) [8] | cell proliferation in the presence of oligofectamine ([8]; MDA-MB-231, MTT assay for 6 days, vs miR-NC) | cell proliferation without delivery vehicle (no oligofectamine) ([8]; listed as exogenous miR-200b)
AU^FCCU^FU^FGCUAU^FCU^FGGGU^FGCU^FA (AUCCUUGCUAUCUGGGUGCUA; RNA, [5FU] at 2, 5, 6, 11, 13, 17, 20, backbone not given here) [modified miR-502] | inhibited | inhibited in a dose dependent manner | inhibited in a dose dependent manner | inhibited | inhibited | inhibited | inhibited | inhibited in a dose dependent manner |  |  |  | 
CAGU^FGGUUUUACCCU^FAUGGU^FAG (CAGUGGUUUUACCCUAUGGUAG; RNA, [5FU] at 4, 15, 20, backbone not given here) [modified miR-140 [SEQ ID NO. 9], miR-140 in which certain (3) U bases are replaced by 5-fluorouracil] |  |  |  |  |  |  |  |  | increased ability to inhibit colorectal cancer cell proliferation |  |  | 
CAGU^FGGU^FU^FU^FU^FACCCU^FAU^FGGU^F AG (CAGUGGUUUUACCCUAUGGUAG; RNA, [5FU] at 4, 7, 8, 9, 10, 15, 17, 20, backbone not given here) [modified miR-140 [SEQ ID NO. 16]] | inhibited | inhibited in a dose dependent manner | inhibited in a dose dependent manner | inhibited | inhibited | inhibited | inhibited | inhibited in a dose dependent manner |  |  |  | 
UAAUACUGCCUGGUAAUGAUGA (chemistry not fully specified; listed as Homo sapiens) [native miR-200b, 21] |  |  |  |  |  |  |  |  |  | had no effects on proliferation | reduced the rate of cell proliferation | did not inhibit cell growth
U^FAACACU^FGU^FCU^FGGU^FAACGAU^FGU^F (UAACACUGUCUGGUAACGAUGU; U replaced by 5-fluorouracil, chemistry not fully specified) [modified miR-200a, miR-200a in which all (7) U bases are replaced by 5-fluorouracil] | inhibited | inhibited in a dose dependent manner | inhibited in a dose dependent manner | inhibited | inhibited | inhibited | inhibited | inhibited in a dose dependent manner |  |  |  | 
U^FAAU^FACU^FGCCGGGU^FAAU^FGAU^FGGA [modified miR-200c] | inhibited | inhibited in a dose dependent manner | inhibited in a dose dependent manner | inhibited | inhibited | inhibited | inhibited | inhibited in a dose dependent manner |  |  |  | 
U^FAU^FU^FCAGGAAGGU^FGU^FU^FACU^FU^FAA (UAUUCAGGAAGGUGUUACUUAA; RNA, [5FU] at 1, 3, 4, 13, 15, 16, 19, 20, backbone not given here) [modified miR-506, miR-506 in which all (8) U bases are replaced by 5-fluorouracil] | inhibited | inhibited in a dose dependent manner | inhibited in a dose dependent manner | inhibited | inhibited | inhibited | inhibited | inhibited in a dose dependent manner |  |  |  | 
U^FGGCAGU^FGU^FCU^FU^FAGCU^FGGU^FU^FGU^F (UGGCAGUGUCUUAGCUGGUUGU; all U replaced by 5-fluorouracil, chemistry not fully specified) [modified miR-34, miR-34 in which all (9) U bases are replaced by 5-fluorouracil] | inhibited | inhibited in a dose dependent manner | inhibited in a dose dependent manner | inhibited | inhibited | inhibited | inhibited | inhibited in a dose dependent manner |  |  |  | 
U^FGU^FAACAGCAACU^FCCAU^FGU^FGGA (UGUAACAGCAACUCCAUGUGGA; RNA, [5FU] at 1, 3, 13, 17, 19, backbone not given here) [modified miR-194] | inhibited | inhibited in a dose dependent manner | inhibited in a dose dependent manner | inhibited | inhibited | inhibited | inhibited | inhibited in a dose dependent manner |  |  |  | 

Reference: patent US12319913B2, “5-halouracil-modified microRNAs and their use in the treatment of cancer” (The Research Foundation for The State University of New York, priority 2018, dated 2025)
